The assay addresses T1, canine TRPM8 (Canis lupus familiaris, UniProt Q1A7N1).
T1 construct: expressed in transfected cells
Description: In vitro canine TRPM8 functional assay (Ca2+-sensitive dye, FLIPR/FDSS, icilin activation). Format: cell-based. The note with it: HEK293 cells expressing canine TRPM8, icilin activation; for inhibition at 1 µM: HEK293, read-out: % I (1 μM), 1 μM compound; for % I (1 μM): 1 μM compound; for pIC50 / IC50: eight-point dose-response; for pIC50: read-out: IC50; for IC50: IC50 (μM); for % I (0.5 μM): 0.5 μM compound. In short, it runs like this: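 Icilin challenge (final concentration producing ~80% of maximal response) followed a 5 min compound exposure in canine TRPM8-HEK293 cells dye-loaded with Calcium 3. Intracellular Ca2+ was read on FLIPR/FDSS. EC50 and IC50 values came from nonlinear sigmoidal dose-response fits of basal-subtracted, percent-of-maximum data averaged over quadruplicates.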

The mark [1] stands for this setting: HEK293, 0.5 μM compound, read-out: % I (0.5 μM).

pIC50: −log10 of the molar value. Several values for one entry are separate records, joined by “and”; a condition that tells them apart may be missing. Identical values can stand only once. Like-named read-outs stand apart in the source and are kept apart here.

T1 sequence (Q1A7N1 1-1104): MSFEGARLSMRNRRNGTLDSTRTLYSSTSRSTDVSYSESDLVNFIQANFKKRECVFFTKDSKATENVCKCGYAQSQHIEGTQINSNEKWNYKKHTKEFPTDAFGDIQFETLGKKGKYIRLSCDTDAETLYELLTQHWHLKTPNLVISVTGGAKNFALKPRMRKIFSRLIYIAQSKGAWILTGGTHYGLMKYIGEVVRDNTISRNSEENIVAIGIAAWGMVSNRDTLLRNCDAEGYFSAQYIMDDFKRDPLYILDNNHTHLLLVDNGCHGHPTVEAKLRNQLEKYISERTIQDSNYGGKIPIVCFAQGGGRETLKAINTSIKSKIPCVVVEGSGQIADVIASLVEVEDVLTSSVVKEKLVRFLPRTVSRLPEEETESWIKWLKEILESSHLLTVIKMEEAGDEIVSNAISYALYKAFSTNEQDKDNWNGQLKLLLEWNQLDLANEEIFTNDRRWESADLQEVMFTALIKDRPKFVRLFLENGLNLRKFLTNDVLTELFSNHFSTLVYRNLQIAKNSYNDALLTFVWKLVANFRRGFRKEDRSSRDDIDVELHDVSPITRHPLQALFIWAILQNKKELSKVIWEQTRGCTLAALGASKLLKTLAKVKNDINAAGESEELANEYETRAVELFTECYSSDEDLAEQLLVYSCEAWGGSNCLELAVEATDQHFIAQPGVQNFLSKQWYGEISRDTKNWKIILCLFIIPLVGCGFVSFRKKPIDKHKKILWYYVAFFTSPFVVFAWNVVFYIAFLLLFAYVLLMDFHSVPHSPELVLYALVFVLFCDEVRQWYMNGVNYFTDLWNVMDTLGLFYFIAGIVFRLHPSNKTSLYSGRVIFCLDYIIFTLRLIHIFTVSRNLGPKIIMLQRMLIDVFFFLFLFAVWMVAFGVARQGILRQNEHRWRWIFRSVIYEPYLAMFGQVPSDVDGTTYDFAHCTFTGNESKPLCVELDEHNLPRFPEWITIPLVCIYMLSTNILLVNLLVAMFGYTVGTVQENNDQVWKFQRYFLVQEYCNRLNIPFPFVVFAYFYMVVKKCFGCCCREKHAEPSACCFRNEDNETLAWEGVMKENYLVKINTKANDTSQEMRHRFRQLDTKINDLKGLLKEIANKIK

On to `CCOP(=O)(OCC)C(Cc1ccc(F)c(F)c1)c1sc2cc(Cl)ccc2c1C1CCCC1` (stereo not drawn) [Cpd 117, [1-(6-Chloro-3-cyclopentyl-benzo[b]thiophen-2-yl)-2-(3,4-difluoro-phenyl)-ethyl]-phosphonic acid diethyl ester], for which the inhibition at 1 µM was 28%.

As to `CCOP(=O)(OCC)C(Cc1ccc(F)c(F)c1)c1c(C)c2ccccc2[s+]1[O-]` (stereo not drawn) [Cpd 118], the “% I (1 μM)” value was determined as 23%.

In the case of `CC(C)OP(=O)(OC(C)C)C(Cc1ccc(F)c(F)c1)c1cc2ccccc2o1` (stereo not drawn) [Cpd 120], the “% I (1 μM)” value amounted to 102% and the pIC50 is 6.41.

Turning to `CC(C)OP(=O)(OC(C)C)C(Cc1cc(F)cc(F)c1)c1cc2ccccc2s1` (stereo not drawn) [Cpd 121], the “% I (1 μM)” value was 103% and the negative logarithm of the IC50 (pIC50) is 6.46.

Regarding `CC(C)OP(=O)(OC(C)C)C(Cc1cccc(F)c1F)c1cc2ccccc2s1` (stereo not drawn) [Cpd 122], the “% I (1 μM)” value worked out at 102% and the pIC50 is 6.46.

Regarding `CCC(C)P(=O)(C(C)CC)C(Cc1ccc(F)c(F)c1)c1oc2ccccc2c1Br` (stereo not drawn) [Cpd 123], the “% I (1 μM)” value was determined as 103% and the pIC50 was 6.55.

Regarding `CC(C)OP(=O)(OC(C)C)C(Cc1ccc(F)c(F)c1)c1oc2ccccc2c1Br` (stereo not drawn) [Cpd 124], the “% I (1 μM)” value came out at 103% and the pIC50 was 7.31.

`CC(C)OP(=O)(OC(C)C)C(Cc1ccc(F)c(C(F)(F)F)c1)c1cc2ccccc2s1` (stereo not drawn) [Cpd 125]: the “% I (1 μM)” value was determined as 103% and the negative-log IC50 (pIC50) was 6.41.

On to `CC(C)OP(=O)(OC(C)C)C(Cc1cc(C(F)(F)F)cc(Cl)c1F)c1cc2ccccc2s1` (stereo not drawn) [Cpd 126], for which the “% I (1 μM)” value is reported as 100% and the negative logarithm of the IC50 (pIC50) was 6.39.

In the case of `CCOP(=O)(OCC)C(Cc1ccc(F)c(F)c1)c1sc2ccccc2c1-c1cccnc1F` (stereo not drawn) [Cpd 128, {2-(3,4-Difluoro-phenyl)-1-[3-(2-fluoro-pyridin-3-yl)-benzo[b]thiophen-2-yl]-ethyl}-phosphonic acid diethyl ester], the inhibition at 1 µM amounted to 100% and 0.02 µM corresponded to half-maximal inhibition (IC50).

As for `CCOP(=O)(OCC)C(Cc1ccc(F)c(F)c1)c1sc2ccccc2c1-c1ccc(F)nc1` (stereo not drawn) [Cpd 130, {2-(3,4-Difluoro-phenyl)-1-[3-(6-fluoro-pyridin-3-yl)-benzo[b]thiophen-2-yl]-ethyl}-phosphonic acid diethyl ester], the inhibition at 1 µM is 100% and the half-maximal inhibitory concentration (IC50) is 0.11 µM.

For the compound `CCOP(=O)(OCC)C(Cc1ccc(F)c(F)c1)c1cc2cccnc2s1` (stereo not drawn) [Cpd 131], the “% I (1 μM)” value was 28%.

For the compound `CCOP(=O)(OCC)C(Cc1ccc(F)c(F)c1)c1sc2ncccc2c1Br` (stereo not drawn) [Cpd 132, 1-[(3-Bromo-thieno[2,3-b]pyridin-2-yl)-2-(3,4-difluoro-phenyl)-ethyl]-phosphonic acid diethyl ester], the inhibition at 1 µM was determined as 102% and the IC50 stood at 0.11 µM.

As to `CC(C)OP(=O)(OC(C)C)C(Cc1cccc(F)c1)c1cc2ccccc2s1` (stereo not drawn) [Cpd 133], the “% I (1 μM)” value came to 101% and the pIC50 is 6.47.

Regarding `CC(C)OP(=O)(OC(C)C)C(Cc1cccc(Cl)c1)c1cc2ccccc2s1` (stereo not drawn) [Cpd 134], the “% I (1 μM)” value amounted to 101% and the pIC50 is 6.47.

`CCOP(=O)(OCC)C(Cc1ccc(Cl)c(C(F)(F)F)c1)c1sc2ccccc2c1Br` (stereo not drawn) [Cpd 139]: the “% I (0.5 μM)” value worked out at 102% and the negative logarithm of the IC50 (pIC50) is 7.22.

`CCOP(=O)(OCC)C(Cc1cc(F)cc(C(F)(F)F)c1)c1sc2ccccc2c1Br` (stereo not drawn) [Cpd 140]: the “% I (0.5 μM)” value is recorded as 102% and the negative logarithm of the IC50 (pIC50) was 7.25.

`CCOP(=O)(OCC)C(Cc1cccc(C(F)(F)F)c1)c1sc2ccccc2c1Br` (stereo not drawn) [Cpd 141]: the “% I (0.5 μM)” value was determined as 100% and the pIC50 was 7.29.

`CCOP(=O)(OCC)C(Cc1cccc(C(F)(F)F)c1F)c1sc2ccccc2c1Br` (stereo not drawn) [Cpd 142]: the “% I (0.5 μM)” value is on record as 101% and the pIC50 was 7.27.

`CCOP(=O)(OCC)C(Cc1ccc(F)c(OC)c1)c1sc2ccccc2c1Br` (stereo not drawn) [Cpd 156]: the IC50 is 0.015 µM and 0.032 µM. Further, under “HEK293, read-out: % I (0.5 μM), 0.5 μM compound”, the inhibition at 0.5 µM was 103%.

`CC(C)OP(=O)(OC(C)C)C(Cc1ccc(C(F)(F)F)c(F)c1)c1sc2ccccc2c1Cl` (stereo not drawn) [Cpd 174]: the “% I (0.5 μM)” value is on record as 104% and the pIC50 is 7.05.

Turning to `CC(C)OP(=O)(OC(C)C)C(Cc1ccc(C(F)(F)F)cc1)c1sc2ccccc2c1Cl` (stereo not drawn) [Cpd 175], the “% I (0.5 μM)” value is listed as 104% and the negative logarithm of the IC50 (pIC50) is 7.14.

As to `COc1ccc(CC(c2sc3ccccc3c2Cl)P(=O)(OC(C)C)OC(C)C)cc1C(F)(F)F` (stereo not drawn) [Cpd 176], the “% I (0.5 μM)” value is listed as 104% and the negative-log IC50 (pIC50) was 6.88.

In the case of `CC(C)OP(=O)(OC(C)C)C(Cc1cccc(C(F)(F)F)c1Cl)c1sc2ccccc2c1Cl` (stereo not drawn) [Cpd 177], the “% I (0.5 μM)” value is 96% and the pIC50 was 6.86.

Regarding `CC(C)OP(=O)(OC(C)C)C(Cc1cc(C(F)(F)F)ccc1Cl)c1sc2ccccc2c1Cl` (stereo not drawn) [Cpd 178], the “% I (0.5 μM)” value is listed as 79% and the negative logarithm of the IC50 (pIC50) was 6.45.

On to `CC(C)OP(=O)(OC(C)C)C(Cc1ccccc1)c1sc2ccccc2c1Cl` (stereo not drawn) [Cpd 179], for which the “% I (0.5 μM)” value was determined as 103% and the pIC50 was 7.17.

Take `CC(C)OP(=O)(OC(C)C)C(Cc1cccc(Cl)c1)c1sc2ccccc2c1Cl` (stereo not drawn) [Cpd 180]: the “% I (0.5 μM)” value is on record as 103% and the negative logarithm of the IC50 (pIC50) is 7.12.

For the compound `CC(C)OP(=O)(OC(C)C)C(Cc1ccc(Cl)cc1)c1sc2ccccc2c1Cl` (stereo not drawn) [Cpd 181], the “% I (0.5 μM)” value is 103% and the negative-log IC50 (pIC50) is 6.95.

Turning to `CC(C)OP(=O)(OC(C)C)C(Cc1cccc(Br)c1)c1sc2ccccc2c1Cl` (stereo not drawn) [Cpd 182], the “% I (0.5 μM)” value is on record as 104% and the pIC50 is 7.12.

In the case of `CC(C)OP(=O)(OC(C)C)C(Cc1c(Cl)cccc1Cl)c1sc2ccccc2c1Cl` (stereo not drawn) [Cpd 183], the “% I (0.5 μM)” value is given as 103% and the pIC50 is 6.88.

Consider `CC(C)OP(=O)(OC(C)C)C(Cc1ccc(OC(F)(F)F)c(Cl)c1)c1sc2ccccc2c1Cl` (stereo not drawn) [Cpd 184], for which the “% I (0.5 μM)” value was determined as 104% and the negative logarithm of the IC50 (pIC50) was 7.24.

For `CC(C)OP(=O)(OC(C)C)C(Cc1cccc(Cl)c1F)c1sc2ccccc2c1Cl` (stereo not drawn) [Cpd 185], the “% I (0.5 μM)” value turned out to be 103% and the negative-log IC50 (pIC50) was 7.15.

With `CC(C)OP(=O)(OC(C)C)C(Cc1cc(F)cc(Cl)c1)c1sc2ccccc2c1Cl` (stereo not drawn) [Cpd 186], the “% I (0.5 μM)” value is 104% and the pIC50 was 7.29.

As to `CC(C)OP(=O)(OC(C)C)C(Cc1ccc(OC(F)(F)F)cc1)c1sc2ccccc2c1Cl` (stereo not drawn) [Cpd 187], the “% I (0.5 μM)” value came to 103% and the negative-log IC50 (pIC50) was 7.21.

`CC(C)OP(=O)(OC(C)C)C(Cc1ccc(F)c(C(F)(F)F)c1)c1sc2ccccc2c1Cl` (stereo not drawn) [Cpd 188]: the “% I (0.5 μM)” value is recorded as 103% and the pIC50 is 7.19.

In the case of `CC(C)OP(=O)(OC(C)C)C(Cc1ccc(C(F)(F)F)cc1F)c1sc2ccccc2c1Cl` (stereo not drawn) [Cpd 191], the “% I (0.5 μM)” value was determined as 104% and the pIC50 is 6.90.

As for `CC(C)OP(=O)(OC(C)C)C(Cc1cccc(F)c1)c1sc2ccccc2c1Br` (stereo not drawn) [Cpd 192], the “% I (1 μM)” value came to 103% and the pIC50 is 7.42.

For `CC(C)OP(=O)(OC(C)C)C(Cc1cc(F)cc(F)c1)c1sc2ccccc2c1Br` (stereo not drawn) [Cpd 193], the “% I (1 μM)” value was determined as 103% and the pIC50 is 7.23.

For the compound `CC(C)OP(=O)(OC(C)C)C(Cc1cccc(F)c1F)c1sc2ccccc2c1Br` (stereo not drawn) [Cpd 194], the “% I (1 μM)” value is recorded as 103% and the negative logarithm of the IC50 (pIC50) is 7.39.

Turning to `CC(C)OP(=O)(OC(C)C)C(Cc1cc(C(F)(F)F)cc(Cl)c1F)c1sc2ccccc2c1Br` (stereo not drawn) [Cpd 195], the “% I (1 μM)” value amounted to 103% and the pIC50 was 7.21.

For `CC(C)OP(=O)(OC(C)C)C(Cc1ccccc1F)c1sc2ccccc2c1Br` (stereo not drawn) [Cpd 196], the “% I (1 μM)” value was found to be 100% and the pIC50 was 7.32.

Consider `CC(C)OP(=O)(OC(C)C)C(Cc1ccccc1F)c1sc2cccc(Br)c2c1Br` (stereo not drawn) [Cpd 198], for which the “% I (1 μM)” value was 98% and the pIC50 was 6.45.

Regarding `CC(C)OP(=O)(OC(C)C)C(Cc1ccccc1F)c1sc2cc(Br)ccc2c1Br` (stereo not drawn) [Cpd 199], the “% I (1 μM)” value stood at 81%.

For `CC(C)OP(=O)(OC(C)C)C(Cc1ccc(F)cc1)c1sc2cc(Br)ccc2c1Br` (stereo not drawn) [Cpd 200], the “% I (1 μM)” value was found to be 81%.

Take `COP(=O)(OC)C(Cc1ccc(F)c(F)c1)c1sc2ccccc2c1Br` (stereo not drawn) [Cpd 201]: the “% I (1 μM)” value is 100% and the pIC50 was 6.88.

As for `Cc1c(C(Cc2ccc(F)c(F)c2)P(=O)(OC(C)C)OC(C)C)oc2cccc(F)c12` (stereo not drawn) [Cpd 202], the “% I (1 μM)” value was 103% and the pIC50 is 7.28.

Take `CCC(C)P(=O)(C(C)CC)C(Cc1ccc(F)c(F)c1)c1sc2ccccc2c1Br` (stereo not drawn) [Cpd 203]: the “% I (1 μM)” value is given as 96% and the pIC50 is 6.34.

Regarding `CCCCOP(=O)(OCCCC)C(Cc1ccc(F)c(F)c1)c1sc2ccccc2c1Br` (stereo not drawn) [Cpd 209, [1-(3-Bromo-benzo[b]thiophen-2-yl)-2-(3,4-difluoro-phenyl)-ethyl]-phosphonic acid dibutyl ester], the pIC50 was 7.15. The inhibition at 0.5 µM under setting [1] came to 104%.

For the compound `COC(=O)COP(=O)(OCC(=O)OC)C(Cc1ccc(F)c(F)c1)c1sc2ccccc2c1Br` (stereo not drawn) [Cpd 212, {[1-(3-Bromo-benzo[b]thiophen-2-yl)-2-(3,4-difluoro-phenyl)-ethyl]-methoxycarbonylmethoxy-phosphinoyloxy}-acetic acid methyl ester], the pIC50 was 6.92. Besides, the inhibition at 0.5 µM under setting [1] was found to be 102%.
